From patent US20180094248A1, “Necroptosis Signaling as a Therapeutic Target for Alzheimer's Disease” (Arizona Board of Regents on behalf of Arizona State …, priority 2016, published 2018) come the findings set out here.

The test system of experiment [1] is phosphorylated MLKL. The experiment can be described thus: Western blot of total and phosphorylated MLKL in primary neurons (AAV-GFP experiment). The format is cell-based, mouse. The protocol: At DIV 1, we infected primary cortical neurons isolated from APP/PS1 and wild type mice with an adeno-associated virus (AAV) expressing the green fluorescent protein (GFP) under the neuronal promotor CamKII. At DIV 7 and 11, neurons from the two genotypes were treated with 10 μM Nec1S or vehicle. We then measured GFP fluorescence in live cells as an indication of live neurons.
(§1) Western blot and ELISA: The proteins were run using reducing conditions in precast gels (Thermo Fisher Scientific) and transferred to nitrocellulose membranes (iBlot, Thermo Fisher Scientific). […] The blots were then washed with TBS-T, and imaged/quantified using a LICOR Odyssey CLx (LI-COR Biosciences) attached to a Dell computer (OptiPlex 7010) running Windows 7 and Image Studio (version 1.0.11, LI-COR Biosciences). […]
Primary neuronal cultures—For the GFP experiments: Primary neurons were isolated from APP/PS1 and NonTg Po pups. […] Neurons were treated for a total of 15 days and the GFP fluorescence was measured every 4 days. […] All fluorescent measurements (excitation 488 nm, emission 509 nm) were performed using the Synergy HT multi-mode microplate reader with the Gen5 software (BioTek, Winooski, Vt.). The reader was pre-heated to 37° C. to maintain optimal conditions for the neurons during the measurements. […]
In general terms: A western blot detects proteins with antibodies after separation by electrophoresis.

In experiment [2] the test system is phosphorylated MLKL. The experiment can be described thus: Western blot of total and phosphorylated MLKL in primary neurons (NeuN experiment). The class given is cell-based, mouse. The protocol:
To probe for a direct link between necroptosis and neuronal loss in AD, we plated primary cortical neurons from APP/PS1 and wild type littermate mice. After seven days in vitro (DIV), neurons were treated with 10 μM of the necroptosis inhibitor 7-Cl-O-necrostatin (Nec15) or vehicle. Treatment was repeated at DIV 11. We then fixed neurons at DIV 11 and 15, and stained them for NeuN to count total number of neurons. […] To determine changes in necroptosis, we isolated proteins from neurons of the same four groups and measured the levels of total and phosphorylated MLKL by western blot.
as §1
Primary neuronal cultures—For the GFP experiments: Primary neurons were isolated from APP/PS1 and NonTg Po pups. […] Neurons were treated for a total of 15 days and the GFP fluorescence was measured every 4 days. […] All fluorescent measurements (excitation 488 nm, emission 509 nm) were performed using the Synergy HT multi-mode microplate reader with the Gen5 software (BioTek, Winooski, Vt.). […]

Where [3] appears, read: DIV 15, 10 μM, APP/PS1-veh group vs the other three groups incl. APP/PS1-Nec1S.

Regarding `CN1C(=O)NC(Cc2c[nH]c3c(Cl)cccc23)C1=O` (stereo not shown) [Nec1S, 5-((7-chloro-1 H-indol-3-yl)methyl)-3-methylimidazolidine-2,4-dione], the pMLKL level entry with phosphorylated MLKL [1] (DIV 11, all four groups, AAV-GFP experiment) was “not detectable”; in the experiment with phosphorylated MLKL [2] (DIV 11, all four groups, NeuN experiment), “not detectable”. Moreover, the “ratio pMLKL/MLKL” value with phosphorylated MLKL [1] (setting [3]) and in the experiment with phosphorylated MLKL [2] (setting [3]) was “statistically different compared to the other three groups” each time.
